The record followed here is patent US6747016B1, “Substituted purine derivatives as inhibitors of cell adhesion” (Aventis Pharma Deutschland GmbH, priority 1999, dated 2004).

Test [1] addresses human vitronectin receptor αvβ3 (Homo sapiens, UniProt P05106+P06756). Kind of test: Kistrin binding assay (K/VnR, αvβ3 ELISA test). The following applies: inhibition of binding of kistrin to human vitronectin receptor. The text has this: The inhibition of the binding of kistrin to human vitronectin receptor (VnR) described below is a test method by which the antagonistic action of the compounds of the invention on the vitronectin receptor αvβ3 can be determined (αvβ3 ELISA Test; the test method is abbreviated as “K/VnR” in the listing of the test results).
Kistrin is purified according to the methods of Dennis et al., as described in Proc. Natl. Acad. Sci. USA 87 (1989) 2471 and Proteins: Structure, Function and Genetics 15 (1993) 312.
Purification of Human Vitronectin Receptor (αvβ3)
144 (1987) 475. Human vitronectin receptor αvβ3 can also be obtained from some cell lines (for example from 293 cells, a human embryonic kidney cell line) which are co-transfected with DNA sequences for both subunits αv and β3 of the vitronectin receptor. The subunits are extracted with octyl glycoside and then chromatographed through concanavalin A, heparin-Sepharose and S-300.
Murine monoclonal antibodies which are specific for the β3 subunits of the vitronectin receptor, are prepared according to the method of Newman et al., Blood, 1985, 227, or by a similar process. The rabbit Fab 2 anti-mouse Fc conjugate to horseradish peroxidase (anti-mouse Fc HRP) was obtained from Pel Freeze (Catalog No. 715 305-1).
The ability of substances to inhibit the binding of kistrin to the vitronectin receptor can be determined using an ELISA test. For this purpose, Nunc 96-well microtiter plates are coated with a solution of kistrin (0.002 mg/ml) according to the method of Dennis et al., as described in Proteins: Structure, Function and Genetics 15 (1993) 312. The plates are then washed twice with PBS/0.05% Tween-20 and blocked by incubating (60 min) with bovine serum albumin (BSA, 0.5%, RIA grade or better) in buffer solution (Tris-HCl (50 mM), NaCl (100 mM), MgCl2 (1 mM), CaCl2 (1 mM), MnCl2 (1 mM), pH 7). Solutions of known inhibitors and of the test substances are prepared in concentrations from 2×10^−12 to 2×10^−6 mol/l in assay buffer (BSA (0.5%, RIA grade or better); Tris-HCl (50 mM), NaCl (100 mM), MgCl2 (1 mM), CaCl2 (1 mM), MnCl2 (1 mM), pH 7). The blocked plates are emptied, and in each case 0.025 ml of this solution which contains a defined concentration (2×10^−12 to 2×10^−6 mol/l) either of a known inhibitor or of a test substance, are added to each well. 0.025 ml of a solution of the vitronectin receptor in assay buffer (0.03 mg/ml) is pipetted into each well of the plate and the plate is incubated at room temperature for 60-180 min on a shaker. In the meantime, a solution (6 ml/plate) of a murine monoclonal antibody specific for the β3 subunit of the vitronectin receptor is prepared in assay buffer (0.0015 mg/ml). A second rabbit antibody (0.001 ml of stock solution/6 ml of the murine monoclonal anti-β3 antibody solution) which is an anti-mouse Fc HRP antibody conjugate is added to this solution, and this mixture of murine anti-β3 antibody and rabbit anti-mouse Fc HRP antibody conjugate is incubated during the time of the receptor-inhibitor incubation. The test plates are washed four times with PBS solution which contains 0.05% Tween-20, and in each case 0.05 ml/well of the antibody mixture is pipetted into each well of the plate and incubated for 60-180 min. The plate is washed four times with PBS/0.05% Tween-20 and then developed with 0.05 ml/well of a PBS solution which contains 0.67 mg/ml of o-phenylenediamine and 0.012% of H2O2. Alternatively to this, o-phenylenediamine can be employed in a buffer (pH 5) which contains Na3PO4 and citric acid. The color development is stopped using 1 N H2SO4 (0.05 ml/well). The absorption for each well is measured at 492-405 nm and the data are evaluated by standard methods.
Background: In an ELISA, binding on a coated surface is turned into a signal by an enzyme label.

Test [2] addresses 293 cells cotransfected with αv and β3 subunits of the vitronectin receptor αvβ3, binding to human vitronectin (Homo sapiens, UniProt P05106+P06756). The test is described as follows: Vitronectin/293 cell test (Vn/293 cell test). The class given is cell-based. Particulars: inhibition of binding of 293 cells to human vitronectin. The method, then: 2) Vitronectin/293 Cell Test
In this test the inhibition of binding of 293 cells to human vitronectin (Vn) by the compounds of the invention is determined (the test method is abbreviated as Vn/293 cell test in the listing of the test results).
Purification of Human Vitronectin
Human vitronectin was isolated from human plasma and purified by affinity chromatography according to the method of Yatohgo et al., Cell Structure and Function 23 (1988) 281.
293 cells, a human embryonic kidney cell line, which were cotransfected with DNA sequences for the αv and β3 subunits of the vitronectin receptor αvβ3, were selected for a high rate of expression (>500,000 αvβ3 receptors/cell) according to the FACS method. The selected cells were cultured and sorted again by means of FACS in order to obtain a stable cell line (15 D) with expression rates>1,000,000 copies of αvβ3 per cell.
A Linbro 96-well tissue culture plate with a flat bottom was coated overnight at 4° C. with human vitronectin (0.01 mg/ml, 0.05 ml/well) in phosphate-buffered saline solution (PBS) and then blocked with 0.5% strength BSA (bovine serum albumin). Solutions of the test substances from 10^−10 mol/l to 2×10^−3 mol/l in glucose-containing DMEM medium were prepared and 0.05 ml/well of the solution were added to the plate in each case. The cells which expressed high levels of αvβ3 (for example 15 D) were suspended in glucose-containing DMEM medium and the suspension was adjusted to a content of 25,000 cells/0.05 ml of medium. 0.05 ml of this cell suspension was added to each well and the plate was incubated at 37° C. for 90 min. The plate was washed 3 times with warm PBS in order to remove unbound cells. The bound cells were lyzed in citrate buffer (25 mM, pH 5.0) which contained 0.25% Triton X-100. The hexoseamidase substrate p-nitrophenyl-N-acetyl-β-D-glucosaminide was then added and the plate was incubated at 37° C. for 90 min. The reaction was stopped with a glycine (50 mM)/EDTA (5 mM) buffer (pH 10.4) and the absorption of each well was measured at 405 to 650 nm. The data were analyzed according to standard methods.

For test [3], the system named is bone resorption by osteoclasts. Kind of test: Pit Assay (osteoclast resorption test). The test is classed as cell-based. Particulars: inhibition of bone resorption. The text has this: The inhibition of bone resorption by the compounds of the invention can be determined, for example, with the aid of an osteoclast resorption test (“Pit Assay”), for example analogously to WO-A-95/32710 which is incorporated herein by reference.

Chain of human vitronectin receptor αvβ3 (P06756 31-889 limits assumed): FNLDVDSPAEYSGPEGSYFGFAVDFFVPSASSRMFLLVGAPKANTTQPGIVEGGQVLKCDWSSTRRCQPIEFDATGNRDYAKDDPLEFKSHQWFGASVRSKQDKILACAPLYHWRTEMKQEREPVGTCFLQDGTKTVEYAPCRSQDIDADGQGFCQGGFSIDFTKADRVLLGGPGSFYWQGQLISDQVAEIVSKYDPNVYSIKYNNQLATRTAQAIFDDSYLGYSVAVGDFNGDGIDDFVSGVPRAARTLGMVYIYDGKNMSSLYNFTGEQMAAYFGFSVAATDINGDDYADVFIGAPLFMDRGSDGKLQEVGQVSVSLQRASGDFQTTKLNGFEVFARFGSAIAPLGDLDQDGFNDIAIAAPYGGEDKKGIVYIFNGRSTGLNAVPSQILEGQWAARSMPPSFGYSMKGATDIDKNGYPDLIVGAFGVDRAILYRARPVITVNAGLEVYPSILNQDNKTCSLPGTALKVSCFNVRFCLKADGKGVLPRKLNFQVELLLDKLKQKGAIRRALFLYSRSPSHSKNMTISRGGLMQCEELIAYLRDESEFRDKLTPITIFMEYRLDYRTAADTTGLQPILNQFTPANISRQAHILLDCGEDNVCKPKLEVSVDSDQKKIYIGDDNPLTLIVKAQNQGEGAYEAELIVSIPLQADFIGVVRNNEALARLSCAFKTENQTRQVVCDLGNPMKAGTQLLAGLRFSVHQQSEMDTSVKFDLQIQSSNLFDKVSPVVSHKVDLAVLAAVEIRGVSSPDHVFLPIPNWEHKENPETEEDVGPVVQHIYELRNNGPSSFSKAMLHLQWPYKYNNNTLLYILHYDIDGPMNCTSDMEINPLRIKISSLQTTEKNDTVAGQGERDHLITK
Chain of human vitronectin receptor αvβ3 (P06756 891-1048 limits assumed): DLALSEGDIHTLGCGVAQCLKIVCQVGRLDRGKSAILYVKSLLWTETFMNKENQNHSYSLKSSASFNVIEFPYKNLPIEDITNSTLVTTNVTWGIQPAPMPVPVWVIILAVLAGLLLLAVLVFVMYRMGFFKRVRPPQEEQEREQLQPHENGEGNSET
Chain of human vitronectin receptor αvβ3 (P05106 27-788): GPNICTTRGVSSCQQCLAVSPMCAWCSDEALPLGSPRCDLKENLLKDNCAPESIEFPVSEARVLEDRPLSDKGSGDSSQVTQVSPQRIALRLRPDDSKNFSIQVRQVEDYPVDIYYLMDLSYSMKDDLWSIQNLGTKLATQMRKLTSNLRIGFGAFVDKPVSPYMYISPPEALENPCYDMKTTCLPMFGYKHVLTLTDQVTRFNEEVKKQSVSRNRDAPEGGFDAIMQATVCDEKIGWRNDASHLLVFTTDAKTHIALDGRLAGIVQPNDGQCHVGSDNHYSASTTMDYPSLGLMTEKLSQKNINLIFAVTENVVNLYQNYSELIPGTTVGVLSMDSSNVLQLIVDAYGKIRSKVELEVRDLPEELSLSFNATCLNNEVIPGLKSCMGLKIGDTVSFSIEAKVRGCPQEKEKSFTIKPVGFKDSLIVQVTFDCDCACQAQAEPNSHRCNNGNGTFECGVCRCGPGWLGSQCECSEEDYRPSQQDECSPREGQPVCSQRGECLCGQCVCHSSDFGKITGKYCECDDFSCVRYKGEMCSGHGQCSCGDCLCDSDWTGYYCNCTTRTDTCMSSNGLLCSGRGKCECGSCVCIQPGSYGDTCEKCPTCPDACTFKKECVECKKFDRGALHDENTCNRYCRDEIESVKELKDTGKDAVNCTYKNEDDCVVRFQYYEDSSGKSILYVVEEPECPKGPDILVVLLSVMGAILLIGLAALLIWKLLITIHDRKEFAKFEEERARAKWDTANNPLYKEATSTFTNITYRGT
Chain of 293 cells cotransfected with αv and β3 subunits of the vitronectin receptor αvβ3, binding to human vitronectin (P05106 whole entry): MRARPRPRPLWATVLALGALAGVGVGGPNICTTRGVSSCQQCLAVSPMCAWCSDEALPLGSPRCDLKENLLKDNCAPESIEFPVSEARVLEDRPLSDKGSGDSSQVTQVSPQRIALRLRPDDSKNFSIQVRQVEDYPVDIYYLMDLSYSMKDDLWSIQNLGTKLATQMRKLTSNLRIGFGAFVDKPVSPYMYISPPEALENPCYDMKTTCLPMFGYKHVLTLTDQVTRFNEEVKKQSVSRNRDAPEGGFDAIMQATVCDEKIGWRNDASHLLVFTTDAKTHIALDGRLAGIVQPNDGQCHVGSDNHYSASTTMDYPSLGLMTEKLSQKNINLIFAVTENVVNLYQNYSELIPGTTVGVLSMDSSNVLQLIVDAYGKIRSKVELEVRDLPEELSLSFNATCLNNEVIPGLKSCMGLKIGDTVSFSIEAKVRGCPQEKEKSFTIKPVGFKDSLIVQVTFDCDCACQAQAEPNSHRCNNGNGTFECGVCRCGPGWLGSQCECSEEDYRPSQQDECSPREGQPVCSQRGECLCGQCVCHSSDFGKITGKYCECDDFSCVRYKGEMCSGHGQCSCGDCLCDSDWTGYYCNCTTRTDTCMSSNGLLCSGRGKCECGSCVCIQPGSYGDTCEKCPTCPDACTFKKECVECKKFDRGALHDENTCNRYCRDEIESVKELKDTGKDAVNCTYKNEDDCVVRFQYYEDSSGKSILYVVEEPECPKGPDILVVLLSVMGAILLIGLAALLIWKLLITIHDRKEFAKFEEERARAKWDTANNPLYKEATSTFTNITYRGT
Chain of 293 cells cotransfected with αv and β3 subunits of the vitronectin receptor αvβ3, binding to human vitronectin (P06756 whole entry): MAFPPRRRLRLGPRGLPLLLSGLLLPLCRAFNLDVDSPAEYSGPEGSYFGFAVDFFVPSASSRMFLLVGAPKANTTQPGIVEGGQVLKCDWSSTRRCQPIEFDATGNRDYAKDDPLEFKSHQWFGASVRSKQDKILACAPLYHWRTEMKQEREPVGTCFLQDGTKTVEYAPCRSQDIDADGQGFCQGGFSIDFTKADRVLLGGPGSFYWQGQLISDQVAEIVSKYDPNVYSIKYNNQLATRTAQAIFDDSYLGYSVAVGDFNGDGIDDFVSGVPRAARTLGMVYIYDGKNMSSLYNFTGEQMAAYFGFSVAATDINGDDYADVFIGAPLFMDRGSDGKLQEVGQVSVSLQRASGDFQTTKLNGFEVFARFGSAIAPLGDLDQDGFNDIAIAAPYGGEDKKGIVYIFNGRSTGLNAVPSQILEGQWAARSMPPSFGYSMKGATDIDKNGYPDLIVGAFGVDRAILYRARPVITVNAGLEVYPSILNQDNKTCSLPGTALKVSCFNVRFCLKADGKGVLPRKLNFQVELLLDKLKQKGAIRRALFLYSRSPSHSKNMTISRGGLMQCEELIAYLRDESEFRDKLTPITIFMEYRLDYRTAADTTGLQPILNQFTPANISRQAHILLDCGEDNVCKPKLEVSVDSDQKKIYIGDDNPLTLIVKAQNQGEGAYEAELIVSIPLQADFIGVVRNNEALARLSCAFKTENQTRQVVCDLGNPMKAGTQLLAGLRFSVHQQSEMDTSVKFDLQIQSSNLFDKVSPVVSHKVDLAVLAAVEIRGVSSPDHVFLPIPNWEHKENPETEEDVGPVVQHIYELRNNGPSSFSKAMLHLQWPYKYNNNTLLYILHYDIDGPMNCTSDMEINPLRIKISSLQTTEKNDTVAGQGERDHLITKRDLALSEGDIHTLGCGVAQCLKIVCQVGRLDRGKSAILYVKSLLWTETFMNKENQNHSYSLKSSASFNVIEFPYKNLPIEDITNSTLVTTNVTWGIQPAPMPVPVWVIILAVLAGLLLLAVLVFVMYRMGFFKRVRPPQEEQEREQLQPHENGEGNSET

By IC50 is commonly meant the concentration at which inhibition is half-maximal. High values mean lower potency, low ones higher potency. As for `O=C(NC1=NCCCN1)C1CCN(c2ncnc3c2ncn3C[C@H](NS(=O)(=O)c2cccc3ccccc23)C(=O)O)CC1` [Example 1, (2S)-2-(Naphthalene-1-sulfonylamino)-3-(6-(4-(1 ,4,5,6-tetrahydropyrimidin-2-ylcarbamoyl)-piperidin-1-yl)-purin-9-yl)-propionic acid], the IC50 in test [1] was found to be 1.9 nM; in test [2] it was 30 nM; in test [3], 0.8 nM.
The like results for `O=C(NC1=NCCCN1)C1CCN(c2ncnc3c2ncn3C[C@H](NS(=O)(=O)c2ccc3ccccc3c2)C(=O)O)CC1` [Example 2, (2S)-2-(Naphthalene-2-sulfonylamino)-3-(6-(4-(1,4,5,6-tetrahydropyrimidin-2-ylcarbamoyl)-piperidin-1-yl)-purin-9-yl)-propionic acid] were, in that order, 2.5 nM, 9 nM and 2.3 nM.
In the case of `CC(C)(C)c1ccc(S(=O)(=O)N[C@@H](Cn2cnc3c(N4CCC(C(=O)NC5=NCCCN5)CC4)ncnc32)C(=O)O)cc1` [Example 3, (2S)-2-(4-tert-Butyl-benzenesulfonylamino)-3-(6-(4-(1,4,5,6-tetrahydropyrimidin-2-ylcarbamoyl)-piperidin-1-yl)-purin-9-yl)-propionic acid], the IC50 was 4.5 nM in test [1] and 67 nM in test [2].
On to `CCCS(=O)(=O)N[C@@H](Cn1cnc2c(N3CCC(C(=O)NC4=NCCCN4)CC3)ncnc21)C(=O)O` [Example 4, (2S)-2-(Propane-1-sulfonylamino)-3-(6-(4-(1,4,5,6-tetrahydropyrimidin-2-ylcarbamoyl)-piperidin-1-yl)-purin-9-yl)-propionic acid], for which the IC50 in test [1] came to 25 nM; in test [2], 1400 nM.
With `O=C(NC1=NCCCN1)C1CCN(c2ncnc3c2ncn3C[C@H](NS(=O)(=O)c2ccc(C(F)(F)F)cc2)C(=O)O)CC1` [Example 5, (2S)-3-(6-(4-(1,4,5,6-Tetrahydropyrimidin-2-ylcarbamoyl)-piperidin-1-yl)-purin-9-yl)-2-(4-trifluoromethyl-benzenesulfonylamino)-propionic acid], the results for the IC50 in test [1], in test [2] and in test [3] were 3.2 nM, 28 nM and 15 nM, respectively.
Consider `O=C(NC1=NCCCN1)C1CCN(c2ncnc3c2ncn3C[C@H](NS(=O)(=O)c2cccc(C(F)(F)F)c2)C(=O)O)CC1` [Example 6, (2S)-3-(6-(4-(1,4,5,6-Tetrahydropyrimidin-2-ylcarbamoyl)-piperidin-1-yl)-purin-9-yl)-2-(3-trifluoromethyl-benzenesulfonylamino)-propionic acid], for which the half-inhibitory concentration (IC50) in test [1] amounted to 3.4 nM; in test [2], 42 nM.
`O=C(NC1=NCCCN1)C1CCN(c2ncnc3c2ncn3C[C@H](NS(=O)(=O)Cc2ccccc2)C(=O)O)CC1` [Example 7, (2S)-2-Phenylmethanesulfonylamino-3-(6-(4-(1,4,5,6-tetrahydropyrimidin-2-ylcarbamoyl)-piperidin-1-yl)-purin-9-yl)-propionic acid]: the concentration for half-maximal inhibition (IC50) in test [1] was 23 nM; in test [2], 500 nM.
As to `O=C(NC1=NCCCN1)C1CCN(c2ncnc3c2ncn3C[C@H](NS(=O)(=O)C(F)(F)F)C(=O)O)CC1` [Example 8, (2S)-3-(6-(4-(1,4,5,6-Tetrahydropyrimidin-2-ylcarbamoyl)-piperidin-1-yl)-purin-9-yl)-2-trifluoromethanesulfonylamino-propionic acid], the IC50 in test [1] worked out at 85 nM.
Regarding `O=C(NC1=NCCCN1)C1CCN(c2ncnc3c2ncn3C[C@H](NS(=O)(=O)CC(F)(F)F)C(=O)O)CC1` [Example 9, (2S)-3-(6-(4-(1,4,5,6-Tetrahydropyrimidin-2-ylcarbamoyl)-piperidin-1-yl)-purin-9-yl)-2-(2,2,2-trifluoro-ethanesulfonylamino)-propionic acid], the concentration for half-maximal inhibition (IC50) worked out at 38 nM in test [1] and 2500 nM in test [2].
For the molecule `CC(C)CS(=O)(=O)N[C@@H](Cn1cnc2c(N3CCC(C(=O)NC4=NCCCN4)CC3)ncnc21)C(=O)O` [Example 10, (2S)-2-(2-Methylpropane-1-sulfonylamino)-3-(6-(4-(1,4,5,6-tetrahydropyrimidin-2-ylcarbamoyl)-piperidin-1-yl)-purin-9-yl)-propionic acid], the half-inhibitory concentration (IC50) in test [1] was 4.2 nM; in test [2] it was 1120 nM.
With `Cc1ccc(S(=O)(=O)N[C@@H](Cn2cnc3c(N4CCC(C(=O)NC5=NCCCN5)CC4)ncnc32)C(=O)O)cc1` [Example 11, (2S)-3-(6-(4-(1,4,5,6-Tetrahydropyrimidin-2-ylcarbamoyl)-piperidin-1-yl)-purin-9-yl)-2-(toluene-4-sulfonylamino)-propionic acid], the figures for the half-maximal inhibitory concentration (IC50) in test [1] and in test [2] were 6.5 nM and 87 nM, respectively.
As to `Cc1cc(C)c(S(=O)(=O)N[C@@H](Cn2cnc3c(N4CCC(C(=O)NC5=NCCCN5)CC4)ncnc32)C(=O)O)c(C)c1` [Example 12, (2S)-3-(6-(4-(1,4,5,6-Tetrahydropyrimidin-2-ylcarbamoyl)-piperidin-1-yl)-purin-9-yl)-2-(2,4,6-trimethyl-benzenesulfonylamino)-propionic acid], the IC50 was determined as 5 nM in test [1], 38 nM in test [2] and 26 nM in test [3].
